Reference: PubChem BioAssay AID2060337 (Molecular Pharmacology Branch, DTP, NCI, 2025)
“And” between values parts separate entries of the source, which are not always exact repeats. Identical values can stand only once.

Tested on: 832693-133-R-J1-PDC multi-cell spheroids, viability
Test: Anticancer human tumor 832693-133-R-J1-PDC patient-derived head and neck squamous carcinoma cell line growth inhibition [IpAb]
Details: for viability, T/C: stronger effect = lower value
Source text: Combinatorial screen of targeted agents with ipatasertib and abemaciclib in multi-cell type tumor spheroids
A high-throughput screen of multi-cell type tumor spheroids was designed to identify active combinations of targeted small molecules and ipatasertib or abemaciclib. Complex spheroids include a stromal component modeled by human endothelial cells (HUVEC) and fibroblasts modeled by human mesenchymal stem cells (MSCs). The concentration ranges selected for each drug and investigational agent were based upon clinically achievable concentrations if the clinical Cmax of the agent was known.
Compounds. The drugs and investigational agents: ipatasertib (NSC767898), abemaciclib(NSC768073), selumetinib (NSC741078), trametinib (758246), adavosertib (NSC754352), everolimus (NSC733504), sapanisertib (NSC764658), vemurafenib (NSC761431), venetoclax (NSC766270), copanlisib (NSC809693), apelisib (NSC765974), palbociblib (NSC758247), vemurafenib (NSC761431), dabrafenib (NSC764134), ravoxertinib (NSC781343), BMS-387032 (NSC767048), sotorasib (NSC818433), talazoparib (NSC767125) and afursertib (NSC778305), were obtained from the National Cancer Institute (NCI) Developmental Therapeutics Program Chemical Repository. The FDA-approved anticancer drug set is available from the NCI Developmental Therapeutics Program. […] The stock solutions were prepared in dimethyl sulfoxide (DMSO, Sigma-Aldrich, St. Louis, MO, cat. D2650) at 800-fold the tested concentration and stored at -70 degrees C prior to their use. All drugs and investigational agents were tested over a range starting from a high concentration at or near the clinical Cmax and decreasing in half-log increments. If the clinical Cmax for an agent had not been determined, the highest concentration tested was 10 microM.
NCI60 Cell Culture. NCI60 cell lines were obtained from the NCI Developmental Therapeutics Program Tumor Repository. For each lot of cells, the Repository performed Applied Biosystems AmpFLSTR Identifiler testing with PCR amplification to confirm consistency with the published Identifier STR profile for each cell line. Cells were kept in continuous culture for no more than 20 passages. The optimal seeding densities for each of the cell lines at each time point assessed were determined prior to performing the concentration response studies. Briefly, the NCI60 human tumor lines were grown as monolayers in RPMI 1640 medium supplemented with 10% FBS and 2 mmol/L L-glutamine.
An additional 9 lines were from the NCI60 cell line panel including MDA-MB-231 breast carcinoma, MDA-MB-468 breast carcinoma, MCF7 breast carcinoma, Hs578T breast carcinoma, MALME-3M melanoma, SK-MEL-2 melanoma, SK-OV-3 ovarian carcinoma, DU-145 prostate carcinoma, PC-3 prostate carcinoma, all cell lines along with major genetic alterations are listed on Table 2. Pooled donor human umbilical vein endothelial cells (HUVEC, Lonza, cat. CC-2519) and human mesenchymal stem cells (hMSC, Lonza, cat. PT-2501) were purchased from Lonza (Walkersville, MD).
PDMR cell lines were grown in complete medium (DC medium): Dulbecco's modified Eagle's medium (DMEM)/F12 supplemented with 5% fetal bovine serum (FBS), 2 mM L-glutamine, 100 U/mL penicillin and 100 µg/ml streptomycin, 0.4 µg/ml hydrocortisone, 10 ng/ml epidermal growth factor (EGF) recombinant human protein, 24 µg/mL adenine, and 0.1 mg/mL primocin. During culture from frozen stock vials, PDMR cells were cultured in the same medium containing 10 µM Y-27632 (see Table 3). The PDCs were cultured in complete DMEM/F12 media without 10 microM Y-27632 dihydrochloride for at least two passages prior to the screen. The pooled donor HUVEC and hMSC were cultured in endothelial cell growth medium 2 (PromoCell, Heidelberg, Germany, cat. C-22011) and mesenchymal stem cell growth medium 2 (PromoCell, cat. C-28009), respectively. For all experiments, HUVEC and hMSC were used at passages </=5.
[…]

[1] = curve of first compound, second compound 0.1 µM
[2] = curve of first compound, second compound 0.316 µM
[3] = curve of first compound, second compound 1 µM
[4] = curve of first compound, second compound 3.16 µM
[5] = curve of first compound, second compound 10 µM
[6] = second compound 0.1 µM, first compound 0.0316 µM
[7] = second compound 0.1 µM, first compound 0.1 µM
[8] = second compound 0.316 µM, first compound 0.0316 µM
[9] = second compound 0.316 µM, first compound 0.1 µM
[10] = second compound 1 µM, first compound 0.0316 µM
[11] = second compound 1 µM, first compound 0.1 µM
[12] = second compound 3.16 µM, first compound 0.0316 µM
[13] = second compound 3.16 µM, first compound 0.1 µM
[14] = second compound 10 µM, first compound 0.0316 µM
[15] = second compound 10 µM, first compound 0.1 µM
[16] = second compound 0.1 µM, first compound 0.316 µM
[17] = second compound 0.1 µM, first compound 1 µM
[18] = second compound 0.1 µM, first compound 3.16 µM
[19] = second compound 0.1 µM, first compound 10 µM
[20] = second compound 0.316 µM, first compound 0.316 µM
[21] = second compound 0.316 µM, first compound 1 µM
[22] = second compound 0.316 µM, first compound 3.16 µM
[23] = second compound 0.316 µM, first compound 10 µM
[24] = second compound 1 µM, first compound 0.316 µM
[25] = second compound 1 µM, first compound 1 µM
[26] = second compound 1 µM, first compound 3.16 µM
[27] = second compound 1 µM, first compound 10 µM
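Further: spheroids exposed to the drugs for one week before the viability readout.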
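Wherever viability, T/C is given: 100% = DMSO vehicle control wells.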

For `Cn1ncnc1[C@H]1c2n[nH]c(=O)c3cc(F)cc(c23)N[C@@H]1c1ccc(F)cc1` + CC(C)NCC(C(=O)N1CCN(c2ncnc3c2C(C)CC3O)CC1)c1ccc(Cl)cc1, the IC50 [1] was over 100 nM, the IC50 [2] was over 100 nM and the IC50 [3] was 4.7 nM. The IC50 [4] was 8.16 nM, the IC50 [5] was over 100 nM and the viability, T/C (second compound 0.1 µM, first compound 0.000316 µM) was 96%. It also gave a viability, T/C (second compound 0.1 µM, first compound 0.001 µM) of 94%, a viability, T/C (second compound 0.1 µM, first compound 0.00316 µM) of 74.7% and a viability, T/C (second compound 0.1 µM, first compound 0.01 µM) of 80.7%. It also gave a viability, T/C [6] of 85.6%, a viability, T/C [7] of 72.4% and a viability, T/C (second compound 0.316 µM, first compound 0.000316 µM) of 77.8%. It also gave a viability, T/C (second compound 0.316 µM, first compound 0.001 µM) of 87.5%, a viability, T/C (second compound 0.316 µM, first compound 0.00316 µM) of 69.2% and a viability, T/C (second compound 0.316 µM, first compound 0.01 µM) of 61.1%. The viability, T/C [8] was 65.3%, the viability, T/C [9] was 52.9% and the viability, T/C (second compound 1 µM, first compound 0.000316 µM) was 59.5%. It also gave a viability, T/C (second compound 1 µM, first compound 0.001 µM) of 56.8%, a viability, T/C (second compound 1 µM, first compound 0.00316 µM) of 49.3% and a viability, T/C (second compound 1 µM, first compound 0.01 µM) of 48%. The viability, T/C [10] was 42.7%, the viability, T/C [11] was 35.9% and the viability, T/C (second compound 3.16 µM, first compound 0.000316 µM) was 57.9%. For the same molecule, the viability, T/C (second compound 3.16 µM, first compound 0.001 µM) was 61%, the viability, T/C (second compound 3.16 µM, first compound 0.00316 µM) was 56.1% and the viability, T/C (second compound 3.16 µM, first compound 0.01 µM) was 46.5%. The viability, T/C [12] was 41.7%, the viability, T/C [13] was 36.2% and the viability, T/C (second compound 10 µM, first compound 0.000316 µM) was 83.5%. The viability, T/C (second compound 10 µM, first compound 0.001 µM) was 69.4%, the viability, T/C (second compound 10 µM, first compound 0.00316 µM) was 65% and the viability, T/C (second compound 10 µM, first compound 0.01 µM) was 62.6%. The viability, T/C [14] was 63.2% and the viability, T/C [15] was 47.8%.

Work on `C=CCn1c(=O)c2cnc(Nc3ccc(N4CCN(C)CC4)cc3)nc2n1-c1cccc(C(C)(C)O)n1` + CCN1CCN(Cc2ccc(Nc3ncc(F)c(-c4cc(F)c5nc(C)n(C(C)C)c5c4)n3)nc2)CC1 yielded an IC50 (curve of first compound, second compound 0.01 µM) of 233 nM, an IC50 (curve of first compound, second compound 0.0316 µM) of 246 nM and an IC50 [1] of 138 nM. The IC50 [2] was 134 nM, the IC50 [3] was 2620 nM and the viability, T/C (second compound 0.01 µM, first compound 0.0316 µM) was 93.9%. It also gave a viability, T/C (second compound 0.01 µM, first compound 0.1 µM) of 66.6%, a viability, T/C (second compound 0.01 µM, first compound 0.316 µM) of 42.4% and a viability, T/C (second compound 0.01 µM, first compound 1 µM) of 28.9%. For the same molecule, the viability, T/C (second compound 0.01 µM, first compound 3.16 µM) was 27.5%, the viability, T/C (second compound 0.01 µM, first compound 10 µM) was 13.9% and the viability, T/C (second compound 0.0316 µM, first compound 0.0316 µM) was 74.7%. The viability, T/C (second compound 0.0316 µM, first compound 0.1 µM) was 68%, the viability, T/C (second compound 0.0316 µM, first compound 0.316 µM) was 40.4% and the viability, T/C (second compound 0.0316 µM, first compound 1 µM) was 33.2%. It also gave a viability, T/C (second compound 0.0316 µM, first compound 3.16 µM) of 29.3%, a viability, T/C (second compound 0.0316 µM, first compound 10 µM) of 14.9% and a viability, T/C [6] of 65.9%. The viability, T/C [7] was 51.8%, the viability, T/C [16] was 41.6% and the viability, T/C [17] was 33.3%. It also gave a viability, T/C [18] of 30.9%, a viability, T/C [19] of 19.1% and a viability, T/C [8] of 53.4%. It also gave a viability, T/C [9] of 52.9%, a viability, T/C [20] of 47.9% and a viability, T/C [21] of 37.4%. The viability, T/C [22] was 35.2%, the viability, T/C [23] was 25% and the viability, T/C [10] was 61.9%. The viability, T/C [11] was 65.9%, the viability, T/C [24] was 56.7% and the viability, T/C [25] was 53.6%. For the same molecule, the viability, T/C [26] was 51.6% and the viability, T/C [27] was 23.8%.

`CC(=O)c1c(C)c2cnc(Nc3ccc(N4CCNCC4)cn3)nc2n(C2CCCC2)c1=O` was tested, and the viability, T/C (compound 0.000949 µM) was 87.4% and 105%, the viability, T/C (compound 0.003 µM) was 87.3% and 96.4% and the viability, T/C (compound 0.00949 µM) was 79.2% and 84.6%. For the same molecule, the viability, T/C (compound 0.03 µM) was 66.9% and 69.8%, the viability, T/C (compound 0.0949 µM) was 69.9% and 64.3% and the viability, T/C (compound 0.3 µM) was 51% and 55.9%. The IC50 (curve of compound) was over 300 nM.

`COc1c(OCCCN2CCOCC2)ccc2c3n(c(=NC(=O)c4cnc(N)nc4)nc12)CCN3` was tested, and the viability, T/C (compound 0.00316 µM) was 93.8% and 99%, the viability, T/C (compound 0.01 µM) was 67.5% and 74.3% and the viability, T/C (compound 0.0316 µM) was 21.3% and 29.8%. For the same molecule, the viability, T/C (compound 0.1 µM) was 9.21% and 9.49%, the viability, T/C (compound 0.316 µM) was 4.67% and 4.86% and the viability, T/C (compound 1 µM) was 4.72% and 4.34%. The IC50 (curve of compound) was 15.5 nM and 18.8 nM.

In the case of `CC1(C)CCC(CN2CCN(c3ccc(C(=O)NS(=O)(=O)c4ccc(NCC5CCOCC5)c([N+](=O)[O-])c4)c(Oc4cnc5[nH]ccc5c4)c3)CC2)=C(c2ccc(Cl)cc2)C1` + CC(C)NCC(C(=O)N1CCN(c2ncnc3c2C(C)CC3O)CC1)c1ccc(Cl)cc1, the IC50 [1] is reported as 9680 nM, the IC50 [2] is reported as 4870 nM and the IC50 [3] is reported as 3920 nM. It also gave an IC50 [4] of 3740 nM, an IC50 [5] of 3640 nM and a viability, T/C [6] of 94.1%. The viability, T/C [7] was 90.3%, the viability, T/C [16] was 94.6% and the viability, T/C [17] was 88.5%. For the same molecule, the viability, T/C [18] was 82.7%, the viability, T/C [19] was 48.8% and the viability, T/C [8] was 81.2%. It also gave a viability, T/C [9] of 80.3%, a viability, T/C [20] of 74.2% and a viability, T/C [21] of 64.7%. For the same molecule, the viability, T/C [22] was 68.7%, the viability, T/C [23] was 26.9% and the viability, T/C [10] was 60.9%. It also gave a viability, T/C [11] of 55.2%, a viability, T/C [24] of 55.2% and a viability, T/C [25] of 49.5%. For the same molecule, the viability, T/C [26] was 72.4%, the viability, T/C [27] was 12.7% and the viability, T/C [12] was 51.2%. The viability, T/C [13] was 47.6%, the viability, T/C (second compound 3.16 µM, first compound 0.316 µM) was 55.5% and the viability, T/C (second compound 3.16 µM, first compound 1 µM) was 57.3%. For the same molecule, the viability, T/C (second compound 3.16 µM, first compound 3.16 µM) was 73.2%, the viability, T/C (second compound 3.16 µM, first compound 10 µM) was 8.99% and the viability, T/C [14] was 58.6%. It also gave a viability, T/C [15] of 62.5%, a viability, T/C (second compound 10 µM, first compound 0.316 µM) of 52.2% and a viability, T/C (second compound 10 µM, first compound 1 µM) of 51.6%. It also gave a viability, T/C (second compound 10 µM, first compound 3.16 µM) of 57.4% and a viability, T/C (second compound 10 µM, first compound 10 µM) of 3.92%.
